# Results published in article PMC12259270, “Sensory neuron–expressed FGF13 controls nociceptive signaling in diabetic neuropathy models” (The Journal of Clinical Investigation, 2025).
# Residues, ends and D or L forms follow the SMILES beside them. *: point of attachment. NHPh = c1ccc(N*)cc1
# Experiments:
# [1] = tested on: Na+ currents in hIPSC-derived sensory neurons (RealDRG); test: Whole-cell voltage clamp, hIPSC-derived sensory neurons (RealDRG) with Nav1.8 blocker A-803467; format: cell-based, human; settings: for Activation / Peak Density / Steady-State inactivation / Tau (τ) / Long-term inactivation, 2nd Pulse / Long-term inactivation, 3rd Pulse / Long-term inactivation, 4th Pulse: RealDRG
# Experimental: (§1) Next, we conducted whole-cell patch-clamp electrophysiological recordings in hIPSC-derived sensory neurons under three conditions: unstimulated and treated with 0.07% ethanol (capsaicin vehicle), treated with capsaicin (100 nM, 10 minutes), and treated with capsaicin plus SB-366791 (10 μM), a selective TRPV1 inhibitor. Each group was exposed to either vehicle (0.01% DMSO) or PW164 (50 μM), with all recordings performed in the presence of the Nav1.8 blocker A-803467 (300 nM) ([41]). The experimental groups are color coded in Figure 2A. Capsaicin caused potentiation of INa (Figure 2A) and induced hyperpolarizing shifts in the V1/2 of activation (Figure 2B) and SSI (Figure 2C). […] Next, we investigated whether silencing FGF13 could replicate PW164’s effects and prevent additional activity of the compound. hIPSC-derived sensory neurons were transfected with a previously validated pAAV-shFGF13-GFP construct ([42]) (Supplemental Figure 8). […] Neither PW164 nor FGF13 silencing affected Na+ currents in neurons transfected with pAAV-shCTRL-GFP or pAAV-shFGF13-GFP, whether unstimulated or treated with capsaicin in the presence of ProTx II (Supplemental Figure 9 and Supplemental Table 6). Thus, PW164 selectively modulated FGF13-dependent Na^+ current sensitization via TRPV1, with FGF13 silencing mimicking and validating PW164’s effect. […]
# (§2) Whole-cell patch clamp electrophysiology
# (§3) HEK293-Nav1.7 cells, HEK293 stably expressing human Nav1.6 (HEK-Nav1.6), HEK293 stably expressing human Nav1.5 (HEK-Nav1.5), human hIPSC-derived sensory neurons (RealDRGTM from Anatomic Incorporated 1020F1-1M) and donor-derived DRG neurons were plated at low density on glass coverslips and processed for whole-cell patch clamp electrophysiology in voltage-clamp and/or current clamp mode. Whole-cell patch electrophysiological experiments were conducted following previously published studies (26). Current densities were obtained by dividing INa amplitude by membrane capacitance. Current –voltage relationships were generated by plotting current density as a function of the […]. Conductance (G Na) was calculated by the […]
# (§4) where INa is the current amplitude at voltage Vm, and Erev is the Na+ reversal potential.
# (§5) Activation curves were derived by plotting normalized GNa as a function of test potential and fitted using […]
# (§6) Where GNa,Max is the maximum conductance, Va is the membrane potential of half-maximal activation, Em is the membrane voltage and k is the slope factor. For steady -state inactivation, normalized current amplitude (INa/INa,Max) at the test potential was plotted as a function of prepulse potential (Vm) and fitted using the […]
# (§7) Where Vh is the potential of half-maximal inactivation, E m is the membrane voltage, and k is the slope factor.
# (§8) Transient INa inactivation decay was estimated with the standard exponential equation. Inactivation time constant (tau, τ) was fitted with the following equation: […]
# (§9) where I(t) is the amplitude of the current at time t and Iss is the steady-state current during a single voltage-step.
# (§10) The goodness of fitting was determined by correlation coefficient (R), and the cutoff of R was set at 0.85. To observe effects on long-term inactivation (LTI), a four-step protocol was employed during which cells were subjected to four 0 mV, 20 ms depolarization pulses separated by −90 mV, 40 ms recovery intervals. To control for various cell sizes, the current densities were calculated by dividing INa peak current amplitude/membrane capacitance (Cm). To represent the fraction of channels entering into LTI, the peak INa observed during depolarization cycles 2-4 was normalized to the peak INa observed during depolarization cycle 1 (INa/INa,Cycle 1) and plotted as a function of the depolarization cycle.
# (§11) The cumulative (frequency-dependent) use-dependency was determined by applying 20 pulses with a depolarization to −10 mV (50 ms duration) and 50 ms recovery intervals with a train of 20 pulses at 10 Hz from a holding potential at -70 mV. […]
# [2] = tested on: Na+ currents in hIPSC-derived sensory neurons (RealDRG); test: Whole-cell voltage clamp, hIPSC-derived sensory neurons (RealDRG) with Nav1.7 blocker ProTx-II; format: cell-based, human; settings: for Activation / Peak Density / Steady-State inactivation / Tau (τ) / Long-term inactivation, 2nd Pulse / Long-term inactivation, 3rd Pulse / Long-term inactivation, 4th Pulse: RealDRG
# Experimental: as §1, §2, §3, §4, §5, §6, §7, §8, §9, §10, §11
# [3] = + A-803467, Control (pAAV-GFP) + ZL192
# [4] = + A-803467, Sh (pAAV-shFGF13-GFP) + ZL192
# [5] = + Nav1.8 blocker A-803467, Naive + ZL192
# [6] = + Nav1.8 blocker A-803467, Naïve + ZL192
# [7] = + Nav1.7 blocker ProTx-II, Naive + ZL192
# [8] = + Nav1.7 blocker ProTx-II, Naïve + ZL192
structure (smiles),measurement,setting,value
CC(=O)N[C@@H](Cc1ccccc1)C(=O)N[C@@H](CC(C)C)C(=O)N1CCC[C@H]1C(=O)N[C@@H](CCCCN)C(=O)Nc1ccccc1 [ZL192] (Ac-FLPK-NHPh),Activation,[1]; [3],−29.64 ± 0.92 mV
same,Peak Density,[1]; [3],−189.79 ± 15.05 pA/pF
same,Steady-State inactivation,[1]; [3],−70.68 ± 1.76 mV
same,Tau (τ),[1]; [3],1.09 ± 0.05 ms
same,"Long-term inactivation, 2nd Pulse","[1]; + A-803467, Control + ZL192",−90.69 ± 2.00 % maximal Na+ current
same,"Long-term inactivation, 3rd Pulse","[1]; + A-803467, Control + ZL192",−89.18 ± 2.37 % maximal Na+ current
same,"Long-term inactivation, 4th Pulse","[1]; + A-803467, Control + ZL192",−87.9 ± 2.75 % maximal Na+ current
same,Activation,[1]; [4],−22.84 ± 1.28 mV
same,Peak Density,[1]; [4],−77.34 ± 6.83 pA/pF
same,Steady-State inactivation,[1]; [4],−61.77 ± 2.40 mV
same,Tau (τ),[1]; [4],1.23 ± 0.05 ms
same,"Long-term inactivation, 2nd Pulse","[1]; + A-803467, Sh + Zl192",−84.46 ± 3.81 % maximal Na+ current
same,"Long-term inactivation, 3rd Pulse","[1]; + A-803467, Sh + Zl192",−82.09 ± 3.89 % maximal Na+ current
same,"Long-term inactivation, 4th Pulse","[1]; + A-803467, Sh + Zl192",−80.59 ± 4.08 % maximal Na+ current
same,Activation,[1]; [5],−29.92 ± 0.79 mV
same,Peak Density,[1]; [5],−181.06 ± 13.74 pA/pF
same,Steady-State inactivation,[1]; [5],−72.03 ± 0.94 mV
same,Tau (τ),[1]; [5],1.31 ± 0.06 ms
same,"Long-term inactivation, 2nd Pulse",[1]; [6],−90.95 ± 1.82 % maximal Na+ current
same,"Long-term inactivation, 3rd Pulse",[1]; [6],−88.17 ± 2.02 % maximal Na+ current
same,"Long-term inactivation, 4th Pulse",[1]; [6],−86.7 ± 1.7 % maximal Na+ current
same,effect on INa in naive neurons,"[1]; ZL192 50 μM, no triggering stimuli",potentiated INa
same,UseDependency (Suppl. Figure S14D),"[2]; Control cells, pulse 1",1
same,UseDependency (Suppl. Figure S14D),"[2]; Control cells, pulse 3",0.9097
same,UseDependency (Suppl. Figure S14D),"[2]; Control cells, pulse 5",0.8784
same,UseDependency (Suppl. Figure S14D),"[2]; Control cells, pulse 10",0.8714
same,UseDependency (Suppl. Figure S14D),"[2]; Control cells, pulse 15",0.8646
same,UseDependency (Suppl. Figure S14D),"[2]; Control cells, pulse 20",0.8556
same,UseDependency (Suppl. Figure S14D),"[2]; Naive cells, pulse 1",1
same,UseDependency (Suppl. Figure S14D),"[2]; Naive cells, pulse 3",0.9097
same,UseDependency (Suppl. Figure S14D),"[2]; Naive cells, pulse 5",0.8778
same,UseDependency (Suppl. Figure S14D),"[2]; Naive cells, pulse 10",0.8143
same,UseDependency (Suppl. Figure S14D),"[2]; Naive cells, pulse 15",0.7732
same,UseDependency (Suppl. Figure S14D),"[2]; Naive cells, pulse 20",0.7489
same,Activation,[2]; [7],−27.64 ± 0.93 mV
same,Peak Density,[2]; [7],−96.53 ± 4.85 pA/pF
same,Steady-State inactivation,[2]; [7],−59.34 ± 1.61 mV
same,Tau (τ),[2]; [7],1.33 ± 0.06 ms
same,"Long-term inactivation, 2nd Pulse",[2]; [8],−99.26 ± 0.91 % maximal Na+ current
same,"Long-term inactivation, 3rd Pulse",[2]; [8],−100.38 ± 1.08 % maximal Na+ current
same,"Long-term inactivation, 4th Pulse",[2]; [8],−100.45 ± 1.3 % maximal Na+ current
same,Activation,"[2]; + ProTx-II, Control + ZL192",−30.93 ± 0.89 mV
same,"Long-term inactivation, 2nd Pulse","[2]; + ProTx-II, Control + ZL192",−98.61 ± 0.74 % maximal Na+ current
same,"Long-term inactivation, 3rd Pulse","[2]; + ProTx-II, Control + ZL192",−99.17 ± 0.84 % maximal Na+ current
same,"Long-term inactivation, 4th Pulse","[2]; + ProTx-II, Control + ZL192",−98.95 ± 1.01 % maximal Na+ current
same,Peak Density,"[2]; + ProTx-II, Control + ZL192",−101.87 ± 5.35 pA/pF
same,Steady-State inactivation,"[2]; + ProTx-II, Control + ZL192",−53.15 ± 0.91 mV
same,Tau (τ),"[2]; + ProTx-II, Control + ZL192",1.0 ± 0.04 ms
same,Activation,"[2]; + ProTx-II, Sh + ZL192",−28.74 ± 1.12 mV
same,Peak Density,"[2]; + ProTx-II, Sh + ZL192",−99.91 ± 8.28 pA/pF
same,Steady-State inactivation,"[2]; + ProTx-II, Sh + ZL192",−62.97 ± 1.64 mV
same,Tau (τ),"[2]; + ProTx-II, Sh + ZL192",1.27 ± 0.08 ms
same,"Long-term inactivation, 2nd Pulse","[2]; + ProTx-II, Sh + Zl192",−96.65 ± 1.81 % maximal Na+ current
same,"Long-term inactivation, 3rd Pulse","[2]; + ProTx-II, Sh + Zl192",−97.25 ± 2.18 % maximal Na+ current
same,"Long-term inactivation, 4th Pulse","[2]; + ProTx-II, Sh + Zl192",−99.23 ± 3.28 % maximal Na+ current
same,UseDependency (Suppl. Figure S14D),"[2]; ShFGF13 cells, pulse 1",1
same,UseDependency (Suppl. Figure S14D),"[2]; ShFGF13 cells, pulse 3",0.9541
same,UseDependency (Suppl. Figure S14D),"[2]; ShFGF13 cells, pulse 5",0.9361
same,UseDependency (Suppl. Figure S14D),"[2]; ShFGF13 cells, pulse 10",0.8879
same,UseDependency (Suppl. Figure S14D),"[2]; ShFGF13 cells, pulse 15",0.8614
same,UseDependency (Suppl. Figure S14D),"[2]; ShFGF13 cells, pulse 20",0.8526
same,activity on Na+ currents with ProTx-II,"[2]; ZL192 50 μM, ProTx-II 10 nM, Suppl Fig 14",no activity
